In patent publication US6841519B1, “Isoxazoline derivatives and herbicides containing the same as the active ingredient” (Kumiai Chemical Industry Co., Ltd., priority 1999, dated 2005):

Tests used:
Format in all cases: in vivo
[1] = system: Setaria viridis (L.) Beauv. (Se); test: Test for herbicidal effect by upland field soil treatment (Test Example 2), Se
Procedure, shortened: (§1)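 Echinochloa crus-galli and Setaria viridis were sown in upland field soil and covered, then the soil surface was sprayed with water-diluted wettable powder at 100 g active ingredient per 10 ares (100 liters per 10 ares). Plants were grown in a greenhouse and scored on a standard scale on day 21.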

[2] = system: Echinochloa crus-galli (L.) Beauv. var. crusgall (Ec); test: Test for herbicidal effect by upland field soil treatment (Test Example 2), Ec
Procedure, shortened: as §1

[3] = system: Echinochloa crus-galli (L.) Beauv. var. crusgalli (Ec); test: Test for herbicidal effect by upland foliage treatment (Test Example 3); details: 100 g/10 a active ingredient, examined at 14th day
Experimental: Test For Herbicidal Effect By Upland Foliage Treatment
An upland field soil was filed in a plastic pot of 80 cm^2. Seeds of Echinochloa crus-galli (L.) Beauv. var. crusgalli (Ec) were sowed. Breeding was made in a greenhouse for 2 weeks. Wettable powders produced in accordance with the Formulation 1 were diluted with water and sprayed on the whole foliage of plants from above the plants using a small sprayer in an amount of 100 liters per 10 ares so that the amount of each active ingredient became 100 g per 10 ares. Then, breeding was made in the greenhouse, and the herbicidal effect of each wettable powder was examined at the 14th day from the treatment in accordance with the standard shown in Table 40.

[4] = system: Echinochloa oryzicola Vasing. (Eo); test: Test for herbicidal effect by paddy field soil treatment (Test Example 1); details: application amount (active ingredient) 100 g/10 a, examined at the 21st day from the treatment, index per Table 40
Procedure, shortened: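 Eo seeds sown in puddled paddy soil under 3 cm water; next day a water-diluted wettable powder was dropped onto the water surface at 100 g active ingredient per 10 ares. Herbicidal effect scored on a standard scale 21 days after treatment, greenhouse-grown.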

[5] = 100 g/10 a active ingredient, examined at 21st day
[6] = application amount (active ingredient) 100 g/10 a, examined at the 21st day from the treatment, index per Table 40

Structure (SMILES): COc1cccc(OC)c1CS(=O)(=O)C1=NOC(C)(C)C1 [Compound 1-535]
- Herbicidal effect to Se [1, 5]: 5 (A herbicidal effect or phytotoxicity of 90% or more)
- Herbicidal effect to Ec [2, 5]: 5 (A herbicidal effect or phytotoxicity of 90% or more)
- Herbicidal effect to Ec [3]: 4 (A herbicidal effect or phytotoxicity of 70% to less than 90%)
- Herbicidal effect to Eo [4]: 5 (A herbicidal effect or phytotoxicity of 90% or more)

Structure (SMILES): CC1(C)CC(S(=O)(=O)Cc2cc(C(F)(F)F)ccc2F)=NO1 [Compound 1-514]
- Herbicidal effect to Se [1, 5]: 5 (A herbicidal effect or phytotoxicity of 90% or more)
- Herbicidal effect to Ec [2, 5]: 5 (A herbicidal effect or phytotoxicity of 90% or more)
- Herbicidal effect to Ec [3]: 5 (A herbicidal effect or phytotoxicity of 90% or more)
- Herbicidal effect to Eo [4]: 5 (A herbicidal effect or phytotoxicity of 90% or more)

Structure (SMILES): CC(c1ccccc1)S(=O)(=O)C1=NOC(C)(C)C1 (stereo not shown) [Compound 1-581]
- Herbicidal effect to Se [1, 5]: 5 (A herbicidal effect or phytotoxicity of 90% or more)
- Herbicidal effect to Ec [2, 5]: 5 (A herbicidal effect or phytotoxicity of 90% or more)
- Herbicidal effect to Ec [3]: 4 (A herbicidal effect or phytotoxicity of 70% to less than 90%)
- Herbicidal effect to Eo [4]: 5 (A herbicidal effect or phytotoxicity of 90% or more)

Structure (SMILES): CC1(C)CC(S(=O)(=O)Cc2cc(C(F)(F)F)cc(C(F)(F)F)c2)=NO1 [Compound 1-543]
- Herbicidal effect to Se [1, 5]: 5 (A herbicidal effect or phytotoxicity of 90% or more)
- Herbicidal effect to Ec [2, 5]: 5 (A herbicidal effect or phytotoxicity of 90% or more)
- Herbicidal effect to Ec [3]: 4 (A herbicidal effect or phytotoxicity of 70% to less than 90%)
- Herbicidal effect to Eo [4]: 5 (A herbicidal effect or phytotoxicity of 90% or more)

Structure (SMILES): CC1(C)CC(S(=O)(=O)Cc2ccccc2S(=O)(=O)C(F)(F)F)=NO1 [Compound 1-517]
- Herbicidal effect to Se [1, 5]: 5 (A herbicidal effect or phytotoxicity of 90% or more)
- Herbicidal effect to Ec [2, 5]: 5 (A herbicidal effect or phytotoxicity of 90% or more)
- Herbicidal effect to Ec [3]: 5 (A herbicidal effect or phytotoxicity of 90% or more)
- Herbicidal effect to Eo [4]: 5 (A herbicidal effect or phytotoxicity of 90% or more)

Structure (SMILES): CC(C)COc1cccc(Cl)c1CS(=O)(=O)C1=NOC(C)(C)C1 [Compound 1-572]
- Herbicidal effect to Se [1, 5]: 5 (A herbicidal effect or phytotoxicity of 90% or more)
- Herbicidal effect to Ec [2, 5]: 5 (A herbicidal effect or phytotoxicity of 90% or more)
- Herbicidal effect to Ec [3]: 4 (A herbicidal effect or phytotoxicity of 70% to less than 90%)
- Herbicidal effect to Eo [4]: 5 (A herbicidal effect or phytotoxicity of 90% or more)

Structure (SMILES): CC1(C)CC(S(=O)(=O)Cc2cc(C(F)(F)F)ccc2C(F)(F)F)=NO1 [Compound 1-544]
- Herbicidal effect to Se [1, 5]: 5 (A herbicidal effect or phytotoxicity of 90% or more)
- Herbicidal effect to Ec [2, 5]: 5 (A herbicidal effect or phytotoxicity of 90% or more)
- Herbicidal effect to Ec [3]: 5 (A herbicidal effect or phytotoxicity of 90% or more)
- Herbicidal effect to Eo [4]: 5 (A herbicidal effect or phytotoxicity of 90% or more)

Structure (SMILES): CC1(C)CC(S(=O)(=O)Cc2cccc(OC(F)F)c2)=NO1 [Compound 1-56]
- Herbicidal effect to Se [1, 6]: 5 (A herbicidal effect or phytotoxicity of 90% or more)
- Herbicidal effect to Ec [2, 6]: 5 (A herbicidal effect or phytotoxicity of 90% or more)
- Herbicidal effect to Ec [3]: 5 (A herbicidal effect or phytotoxicity of 90% or more)
- Herbicidal effect to Eo [4]: 5 (A herbicidal effect or phytotoxicity of 90% or more)

Structure (SMILES): CC1(C)CC(S(=O)(=O)Cc2ccccc2OC2CCCC2)=NO1 [Compound 1-609]
- Herbicidal effect to Se [1, 5]: 5 (A herbicidal effect or phytotoxicity of 90% or more)
- Herbicidal effect to Ec [2, 5]: 5 (A herbicidal effect or phytotoxicity of 90% or more)
- Herbicidal effect to Ec [3]: 5 (A herbicidal effect or phytotoxicity of 90% or more)
- Herbicidal effect to Eo [4]: 5 (A herbicidal effect or phytotoxicity of 90% or more)

Structure (SMILES): COCc1ccccc1CS(=O)(=O)C1=NOC(C)(C)C1 [Compound 1-160]
- Herbicidal effect to Se [1, 6]: 5 (A herbicidal effect or phytotoxicity of 90% or more)
- Herbicidal effect to Ec [2, 6]: 5 (A herbicidal effect or phytotoxicity of 90% or more)
- Herbicidal effect to Ec [3]: 5 (A herbicidal effect or phytotoxicity of 90% or more)
- Herbicidal effect to Eo [4]: 5 (A herbicidal effect or phytotoxicity of 90% or more)

Structure (SMILES): Cc1ccc(CS(=O)(=O)C2=NOC(C)(C)C2)c(C)c1 [Compound 1-511]
- Herbicidal effect to Se [1, 5]: 5 (A herbicidal effect or phytotoxicity of 90% or more)
- Herbicidal effect to Ec [2, 5]: 5 (A herbicidal effect or phytotoxicity of 90% or more)
- Herbicidal effect to Ec [3]: 5 (A herbicidal effect or phytotoxicity of 90% or more)
- Herbicidal effect to Eo [4]: 5 (A herbicidal effect or phytotoxicity of 90% or more)

Structure (SMILES): CC1(C)CC(S(=O)(=O)Cc2cccc(Cl)c2F)=NO1 [Compound 1-184]
- Herbicidal effect to Se [1, 6]: 4 (A herbicidal effect or phytotoxicity of 70% to less than 90%)
- Herbicidal effect to Ec [2, 6]: 5 (A herbicidal effect or phytotoxicity of 90% or more)
- Herbicidal effect to Ec [3]: 4 (A herbicidal effect or phytotoxicity of 70% to less than 90%)
- Herbicidal effect to Eo [4]: 5 (A herbicidal effect or phytotoxicity of 90% or more)

Structure (SMILES): COc1ccccc1CS(=O)(=O)C1=NOC(C)(C)C1 [Compound 1-40]
- Herbicidal effect to Se [1, 6]: 5 (A herbicidal effect or phytotoxicity of 90% or more)
- Herbicidal effect to Ec [2, 6]: 5 (A herbicidal effect or phytotoxicity of 90% or more)
- Herbicidal effect to Ec [3]: 5 (A herbicidal effect or phytotoxicity of 90% or more)
- Herbicidal effect to Eo [4]: 5 (A herbicidal effect or phytotoxicity of 90% or more)

Structure (SMILES): CC1(C)CC(S(=O)(=O)Cc2ccc(Cl)cc2[N+](=O)[O-])=NO1 [Compound 1-539]
- Herbicidal effect to Se [1, 5]: 5 (A herbicidal effect or phytotoxicity of 90% or more)
- Herbicidal effect to Ec [2, 5]: 5 (A herbicidal effect or phytotoxicity of 90% or more)
- Herbicidal effect to Ec [3]: 5 (A herbicidal effect or phytotoxicity of 90% or more)
- Herbicidal effect to Eo [4]: 5 (A herbicidal effect or phytotoxicity of 90% or more)

Structure (SMILES): CCC1(C)CC(S(=O)(=O)Cc2ccccc2C)=NO1 (stereo not shown) [Compound 1-201]
- Herbicidal effect to Se [1, 6]: 5 (A herbicidal effect or phytotoxicity of 90% or more)
- Herbicidal effect to Ec [2, 6]: 5 (A herbicidal effect or phytotoxicity of 90% or more)
- Herbicidal effect to Ec [3]: 5 (A herbicidal effect or phytotoxicity of 90% or more)
- Herbicidal effect to Eo [4]: 5 (A herbicidal effect or phytotoxicity of 90% or more)

Structure (SMILES): COc1cccc(Cl)c1CS(=O)(=O)C1=NOC(C)(C)C1 [Compound 1-563]
- Herbicidal effect to Se [1, 5]: 5 (A herbicidal effect or phytotoxicity of 90% or more)
- Herbicidal effect to Ec [2, 5]: 5 (A herbicidal effect or phytotoxicity of 90% or more)
- Herbicidal effect to Ec [3]: 4 (A herbicidal effect or phytotoxicity of 70% to less than 90%)
- Herbicidal effect to Eo [4]: 5 (A herbicidal effect or phytotoxicity of 90% or more)

Structure (SMILES): Cc1cccc(Cl)c1CS(=O)(=O)C1=NOC(C)(C)C1 [Compound 1-560]
- Herbicidal effect to Se [1, 5]: 5 (A herbicidal effect or phytotoxicity of 90% or more)
- Herbicidal effect to Ec [2, 5]: 5 (A herbicidal effect or phytotoxicity of 90% or more)
- Herbicidal effect to Ec [3]: 4 (A herbicidal effect or phytotoxicity of 70% to less than 90%)
- Herbicidal effect to Eo [4]: 5 (A herbicidal effect or phytotoxicity of 90% or more)

Structure (SMILES): CCOc1cccc(C)c1CS(=O)(=O)C1=NOC(C)(C)C1 [Compound 1-602]
- Herbicidal effect to Se [1, 5]: 5 (A herbicidal effect or phytotoxicity of 90% or more)
- Herbicidal effect to Ec [2, 5]: 5 (A herbicidal effect or phytotoxicity of 90% or more)
- Herbicidal effect to Ec [3]: 4 (A herbicidal effect or phytotoxicity of 70% to less than 90%)
- Herbicidal effect to Eo [4]: 5 (A herbicidal effect or phytotoxicity of 90% or more)

Structure (SMILES): C#CCOc1cccc(C)c1CS(=O)(=O)C1=NOC(C)(C)C1 [Compound 1-607]
- Herbicidal effect to Se [1, 5]: 5 (A herbicidal effect or phytotoxicity of 90% or more)
- Herbicidal effect to Ec [2, 5]: 5 (A herbicidal effect or phytotoxicity of 90% or more)
- Herbicidal effect to Ec [3]: 5 (A herbicidal effect or phytotoxicity of 90% or more)
- Herbicidal effect to Eo [4]: 5 (A herbicidal effect or phytotoxicity of 90% or more)

Structure (SMILES): CC1(C)CC(S(=O)(=O)Cc2cc(Cl)cc(Cl)c2)=NO1 [Compound 1-492]
- Herbicidal effect to Se [1, 6]: 5 (A herbicidal effect or phytotoxicity of 90% or more)
- Herbicidal effect to Ec [2, 6]: 5 (A herbicidal effect or phytotoxicity of 90% or more)
- Herbicidal effect to Ec [3]: 4 (A herbicidal effect or phytotoxicity of 70% to less than 90%)
- Herbicidal effect to Eo [4]: 5 (A herbicidal effect or phytotoxicity of 90% or more)

Structure (SMILES): CCCC1(C)CC(S(=O)(=O)Cc2c(F)cccc2F)=NO1 (stereo not shown) [Compound 1-366]
- Herbicidal effect to Se [1, 6]: 5 (A herbicidal effect or phytotoxicity of 90% or more)
- Herbicidal effect to Ec [2, 6]: 5 (A herbicidal effect or phytotoxicity of 90% or more)
- Herbicidal effect to Ec [3]: 4 (A herbicidal effect or phytotoxicity of 70% to less than 90%)
- Herbicidal effect to Eo [4]: 5 (A herbicidal effect or phytotoxicity of 90% or more)

Structure (SMILES): Cc1c(CS(=O)(=O)C2=NOC(C)(C)C2)cccc1[N+](=O)[O-] [Compound 1-537]
- Herbicidal effect to Se [1, 5]: 5 (A herbicidal effect or phytotoxicity of 90% or more)
- Herbicidal effect to Ec [2, 5]: 5 (A herbicidal effect or phytotoxicity of 90% or more)
- Herbicidal effect to Ec [3]: 4 (A herbicidal effect or phytotoxicity of 70% to less than 90%)
- Herbicidal effect to Eo [4]: 5 (A herbicidal effect or phytotoxicity of 90% or more)
